In patent US7476729B2, “Dbait and uses thereof” (Institut Curie, priority 2003, dated 2009):

Test system: Hela cells
Assay: Clonogenic survival assay of Hela cells after 4×0.5 Gy irradiation
Type: cell-based, human
Conditions: 4×0.5 Gy spaced 2 hours, Dbait transfected with Superfect (83 nM or 2 μg)
Method: Exponentially growing cells in six-well plates were harvested and incubated with […] of complete DMEM containing a mixture of Dbait molecules and Superfect reagent (Qiagen, Courtaboeuf, France) in a ratio of 10 μl Superfect per μg DNA. After 5 h at 37° C. under standard conditions, the cells were washed with PBS and complete DMEM was added. Where indicated, cells were exposed to irradiation either in one session (10 Gy) 5 h after the beginning of transfection or in four sessions of 0.5 Gy administered with a ^137Cs unit (1 Gy/min) 3, 4, 5 and 6 h after the beginning of transfection and allowed to grow for two weeks. When plasmid integration was measured, 2 μg of plasmid was added to Dbait transfection and puromycin (1.7 μg/ml) was added to the growth medium 48 h after transfection. Plasmid transfection efficiency was estimated by analyzing 10,000 cells for GFP expression on a FACScan flow cytometer (FACSalibur, Beckton-Dickinson, USA).
Upon 8 hours transfection of Dbait molecules in Hela cells and four irradiation with 0.5 Gy fractionated irradiation spaced 2 hours (4×0.5 Gy), performed with γ-rays from a ^137Cs source, a significant reduction of clonogenic survival was observed as compared to untransfected cells. The results are given on FIG. 2.1 wherein Panel A gives the dose-dependence of normalized survival clone number in the presence of Dbait32 (SEQ ID NO: 1) and Dbait32H (SEQ ID NO: 1), and Panel B, the normalized survival clone number in the presence of different Dbait molecules at 83 nM (concentration in culture medium). Cell culture was in MEM supplemented with 10% serum. Superfect (Qiagene) was used as transfection agent according to the manufacturer's instruction.
Clonogenic survival was estimated as the number of treated cells forming colonies on the number of untreated cells.

Substance: Dbait32H: hairpin double strand DNA with a stem of 32-bp, hexaethyleneglycol linker, phosphorothioate at the free blunt end (DNA ACGCACGGGTGTTGGGTCGTTTGTTCGGATCT; DNA, backbone not given here; hairpin, hexaethyleneglycol loop, 3-bp phosphorothioate at free blunt end)
- clonogenic survival: significantly reduced clonogenic survival
